Data as given in patent US20090281054A1, “COMPOSITIONS AND METHODS COMPRISING CAPURAMYCIN ANALOGUES” (priority 2008, published 2009).
Values after ≈ are worked out from the molar mass of the structure shown. Values joined by “and” are separate entries in the source; they are usually repeats but may differ in a detail not shown here. Identical values can stand only once. Like-named read-outs stand apart in the source and are kept apart here.

Tests used:
in vitro = assay type: cell-based; conditions: mouse
Method: (§1) The SQ997 amino acid derivatives shown in Table 2 were tested for in vitro activity against MTB, cytotoxicity for uninfected J774 cells to determine IC50, and for intracellular activity in the macrophage assay (Table 15). […] Cell viability remained similar to SQ997, or slightly better as cell morphologic changes were reduced.

MTB H37Rv = experiment: MIC by broth microdilution; assay type: cell-based; conditions: Mycobacterium tuberculosis
Method: as §1

MTB in macrophages = assay type: cell-based, Mycobacterium tuberculosis
[1] = system: intracellular MTB (MTBp-SMT1) in J774A.1 macrophages; experiment: Intracellular activity of SQ641-TPGS micelles; assay type: cell-based, Mycobacterium tuberculosis
[2] = system: M. abscessus (MAB; ATCC 700869); experiment: MIC by microdilution method in 7H9 broth; assay type: cell-based; conditions: Mycobacteroides abscessus, ATCC700869; MAB 700869; read-out: MIC
MTB inside macrophages = experiment: Intracellular activity of DMSO-solubilized drug in MTB infected macrophages; assay type: cell-based, Mycobacterium tuberculosis; conditions: 0.25 μg/ml (2 X MIC); Day 0 RLU 443, Control Day 7 4251
[3] = system: M. kansaii (MKN; ATCC12478 & 35775); experiment: MIC by microdilution method in 7H9 broth; assay type: cell-based, M. kansasii; conditions: Mycobacterium kansasii, read-out: MIC
M. smegmatis = experiment: Synergy by checkerboard titration (microdilution); assay type: cell-based; conditions: M. smegmatis
MTB in J774A.1 cells = experiment: Intracellular activity of SQ641 with efflux pump blockers; assay type: cell-based, Mycobacterium tuberculosis; conditions: INH 0.25 μg/ml
MTB in J774 cells = experiment: Intracellular activity of amino acid conjugates; assay type: cell-based, Mycobacterium tuberculosis; conditions: 0.125 μg/ml; day 0 RLU 775, Control day 7 31700
Method: The amino acid conjugates were tested at concentrations of 4 mg/mL and 8 mg/mL compared with a control and isoniazid (INH).
The intracellular activity against MTB by capuramycin amino acid derivatives was tested. Cells J774 were infected with MTB and treated for 7 days with the amino acid derivative. The mean Relative Light Unites (RLU), an estimation of bacterial viability, was measured as described in Snewin et al., Infect. Immun., 1999, 67(9), 4586-4593).

[4] = system: MTB-pSMT1 luciferase reporter strain; experiment: Activity against slowly replicating (hypoxic) MTB; assay type: cell-based; conditions: Mycobacterium tuberculosis
[5] = system: M. smegmatis (MSMG; MC2155); experiment: MIC by microdilution method in 7H9 broth; assay type: cell-based; conditions: Mycolicibacterium smegmatis, MC2155|MC^2155; MSMG MC^2155; 72 hr; read-out: MIC
MTB-H37Rv = experiment: Post-antibiotic effect (PAE); assay type: cell-based, Mycobacterium tuberculosis; conditions: 4 μg/ml, 2 hr of exposure
Method: PAE of SQ641. PAE of SQ641 was determined as described (Chan et al. Antimicrob. Agents Chemother., 2004, 48(1), 340-343). At the end of incubation, suspensions were diluted 1/25, and 0.1 ml was injected into each of triplicate BACTEC vials: drug dilution was 1000-fold in the BACTEC vials. Drug carryover controls (to ascertain absence of any carryover drug) consisting of the same MTB suspension as in the test and similar drug dilutions were mixed immediately, diluted 1/25, and 0.1 ml was injected into BACTEC vials. BACTEC vials were incubated at 37° C. and read in a BACTEC TB-460 reader every 24 hr until the cumulative GI in the control reached 999. PAE was calculated from the formula PAE=T−C, where T is the time required for the drug-exposed organisms to reach a cumulative GI of 100 and C is the time required for the controls to reach a cumulative GI of 100.
PAE determines the time required for the organisms to recover following exposure to an antimicrobial agent for a short duration. PAE activities of both SQ641 and INH, each at 4 μg/ml, were investigated with MTB-H37Rv. Following 2 hr of exposure to drugs, the PAE of INH was 17 hr as compared to 55 hr for SQ641. The PAE of SQ641 was over 3 times that of INH.

MTB = assay type: in vivo, mouse; conditions: 2 weeks treatment; for Lung CFU ± SD: Control 3.8 ± 1.9 × 10^8; for Lung Log CFU: Control 8.58

Question: What does the source list for `CO[C@H]1[C@@H](OC(=O)CCCCCCCN)[C@H](N2C=CC(=O)NC2)O[C@@H]1[C@@H](OC1OC(C(=O)N[C@H]2CCC[C@@H](C)NC2=O)=C[C@H](O)[C@@H]1O)C(N)=O` (stereo partly shown) [997-aminooctanoic acid]?
Answer: IC50 (in vitro): > 32 µg/mL; MIC (MTB H37Rv): 8 µg/mL (≈ 11.3 µM)

Question: Which IC50 (in vitro) does the source give for `CO[C@H]1[C@@H](OC(=O)CCCCCCCCCCN)[C@H](N2C=CC(=O)NC2)O[C@@H]1[C@@H](OC1OC(C(=O)N[C@H]2CCC[C@@H](C)NC2=O)=C[C@H](O)[C@@H]1O)C(N)=O` (stereo partly shown) [997-aminoundecanoic acid] here?
Answer: The IC50 was 32 µg/mL (≈ 42.5 µM).

Question: And the MIC (MTB H37Rv)?
Answer: Its MIC is 2 µg/mL (≈ 2.66 µM).

Question: Which IC50 (in vitro) does the source give for `CO[C@H]1[C@@H](OC(=O)c2ccncc2)[C@H](N2C=CC(=O)NC2)O[C@@H]1[C@@H](OC1OC(C(=O)N[C@H]2CCC[C@@H](C)NC2=O)=C[C@H](O)[C@@H]1O)C(N)=O` (stereo partly shown) [997-isonicotinic acid] here?
Answer: Its IC50 is greater than 32 µg/mL.

Question: And the MIC (MTB H37Rv)?
Answer: Its MIC is 4 µg/mL (≈ 5.93 µM).

Question: Which IC50 (in vitro) does the source give for `CO[C@H]1[C@@H](OC(=O)C2CCNCC2)[C@H](N2C=CC(=O)NC2)O[C@@H]1[C@@H](OC1OC(C(=O)N[C@H]2CCC[C@@H](C)NC2=O)=C[C@H](O)[C@@H]1O)C(N)=O` (stereo partly shown) [997-isonipecotic acid] here?
Answer: Its IC50 is greater than 32 µg/mL.

Question: And the MIC (MTB H37Rv)?
Answer: The MIC was 8 µg/mL (≈ 11.8 µM).

Question: With `CO[C@H]1[C@@H](OC(=O)[C@H](N)C(C)C)[C@H](N2C=CC(=O)NC2)O[C@@H]1[C@@H](OC1OC(C(=O)N[C@H]2CCC[C@@H](C)NC2=O)=C[C@H](O)[C@@H]1O)C(N)=O` (stereo partly drawn) [Compound 997-D-Val] as the compound, how does the IC50 (in vitro) read?
Answer: The IC50 was greater than 32 µg/mL.

Question: What about the MIC (MTB H37Rv) of the same compound?
Answer: The MIC was 12.5 µg/mL (≈ 18.7 µM).

Question: For `CO[C@H]1[C@@H](OC(=O)[C@@H](N)C(C)C)[C@H](N2C=CC(=O)NC2)O[C@@H]1[C@@H](OC1OC(C(=O)N[C@H]2CCC[C@@H](C)NC2=O)=C[C@H](O)[C@@H]1O)C(N)=O` (stereo partly drawn) [Compound 997-L-Val], which IC50 (in vitro) is on record?
Answer: The IC50 was greater than 32 µg/mL.

Question: What about the MIC (MTB H37Rv) of the same compound?
Answer: Its MIC is 12.5 µg/mL (≈ 18.7 µM).

Question: Which “Mean RLU on day 7” value (MTB in macrophages; INH 0.125 μg/ml, day 0 RLU 1397, Control day 7 9075) does the source give for `NNC(=O)c1ccncc1` [INH, isoniazid, reference compound] here?
Answer: The value was 434 RLU.

Question: What about the “Mean RLU at Day 7” value ([1]; Expt 1, one day drug exposure, 0.5 μg/ml, Day 0 RLU 104, CONTROL Day 7 906) of the same compound?
Answer: Its value is 8 RLU.

Question: What about the “Mean RLU at Day 7” value ([1]; Expt 2, four days drug exposure, 0.25 μg/ml, Day 0 RLU 205, CONTROL Day 7 491) of the same compound?
Answer: The value was 1 RLU.

Question: What about the MIC [2] of the same compound?
Answer: Its MIC is greater than 32 µg/mL.

Question: What about the “Mean RLU at Day 7” value (MTB inside macrophages) of the same compound?
Answer: The value was 11 RLU.

Question: What about the MIC ([3]; ATCC 12478 / ATCC 35775, MKN ATCC35775) of the same compound?
Answer: Its MIC is 1 µg/mL (≈ 7.29 µM).

Question: What about the MIC ([3]; MKN ATCC12478) of the same compound?
Answer: The MIC was 2 µg/mL (≈ 14.6 µM).

Question: And the “MIC Combination” value (M. smegmatis; combination SQ641 + INH)?
Answer: Its value is 1.0 µg/mL.

Question: What about the MIC (M. smegmatis; Mycolicibacterium smegmatis, drug alone) of the same compound?
Answer: The MIC was 8 µg/mL.

Question: What about the “Mean RLU at Day 7” value (MTB in J774A.1 cells; Table 13, Day 0 RLU 425, Control Day 7 6283) of the same compound?
Answer: Its value is 127 RLU.

Question: And the “Mean RLU at Day 7” value (MTB in J774A.1 cells; Table 14, Day 0 RLU 811, Control Day 7 3004)?
Answer: Its value is 20 RLU.

Question: What about the “Mean RLU on day 7” value (MTB in J774 cells) of the same compound?
Answer: The value was 131 RLU.

Question: And the MIC [4]?
Answer: Its MIC is 0.062 µg/mL (≈ 0.452 µM).

Question: What about the MIC ([4]; Hypoxic, […]) of the same compound?
Answer: Its MIC is 0.125 µg/mL (≈ 0.911 µM).

Question: And the MIC [5]?
Answer: The MIC was 8 µg/mL (≈ 58.3 µM).

Question: What about the “PAE (post-antibiotic effect)” value (MTB-H37Rv) of the same compound?
Answer: The value was 17 h.

Question: And the “Lung CFU ± SD” value (MTB; PO, 25 mg/kg)?
Answer: Its value is 1.9 ± 0.8 × 10^7 CFU.

Question: What about the “Lung Log CFU” value (MTB; PO, 25 mg/kg) of the same compound?
Answer: Its value is 7.28 Log CFU.

Question: Which results are given for “D-alpha-tocopheryl poly(ethylene glycol) 1000 succinate [TPGS]”?
Answer: Effect of TPGS alone on MTB growth in macrophages (MTB in macrophages): increased MTB growth; Mean RLU on day 7 (MTB in macrophages): 13903 RLU and 14595 RLU and 13942 RLU; Lung CFU ± SD (MTB; IP, 250 mg/kg): 3.0 ± 1.3 × 10^8 CFU; Lung Log CFU (MTB; IP, 250 mg/kg): 8.48 Log CFU
